Experiments:
cytochrome b5 = conditions: saponin doses of 20 μg; cited from earlier work
[1] = test system: bovine serum albumin and cytochrome b5; conditions: mice; cited from earlier work
ovalbumin [2] = assay: Serum anti-ovalbumin antibody response by enzyme immunoassay after immunization; format: in vivo, C57BL/6 mice; conditions: saponin dose 0.625 μg, alone
Procedure: (§1) All experiments were carried out in C57BL/6 mice (female, 8-12 weeks of age). The synergistic adjuvant-effect of the QS-21/QS-7 mixtures was assessed by two parameters: (1) the ability of these mixtures to improve antibody titers to a subunit antigen, ovalbumin, in mice; and (2) the ability of these mixtures to improve an ovalbumin-specific cytotoxic T lymphocyte (killer cell) response in mice.
The experimental techniques were the following. The mice were immunized subcutaneously at week 1, 3, and 5 with 0.2 ml of the indicated formulations in phosphate-buffered saline. Mice were immunized in groups of five. Sera and spleens were harvested at weeks 7 to 9. Sera was assayed for anti-ovalbumin antibody response by enzyme immunoassay. Briefly, a 96 well Immulon plate was coated with 10 μg/ml ovalbumin in phosphate-buffered saline (PBS) overnight at 4° C. These plates were blocked with 10% normal goat serum in PBS (diluent) for one hour at room temperature. Serial 1:10 dilutions of serum were made in diluent and were incubated on the plates for one hour at room temperature or overnight at 4° C. An enzyme conjugate of anti-mouse IgG (or anti-mouse IgG subclass) was diluted in diluent and incubated on the plate. A calorimetric enzyme substrate, tetramethylbenzidine, was used to assay for binding of anti-ovalbumin antibody. […]

ovalbumin [3] = conditions: at 2.5 μg or lower, mice; cited from earlier work
mice = conditions: mouse, in vivo; cited from earlier work
ovalbumin [4] = conditions: doses below 2.5 μg, mice; cited from earlier work
E.G7-OVA target cells = assay: Cytotoxic T-lymphocyte (CTL) assay, 51Cr release, splenic effector cells from immunized mice; format: in vivo, C57BL/6 mice; conditions: s.c. with ovalbumin, weeks 1, 3, 5
Procedure: as §1
The experimental techniques were the following. The mice were immunized subcutaneously at week 1, 3, and 5 with 0.2 ml of the indicated formulations in phosphate-buffered saline. Mice were immunized in groups of five. Sera and spleens were harvested at weeks 7 to 9. Sera was assayed for anti-ovalbumin antibody response by enzyme immunoassay. Briefly, a 96 well Immulon plate was coated with 10 μg/ml ovalbumin in phosphate-buffered saline (PBS) overnight at 4° C. These plates were blocked with 10% normal goat serum in PBS (diluent) for one hour at room temperature. Serial 1:10 dilutions of serum were made in diluent and were incubated on the plates for one hour at room temperature or overnight at 4° C. An enzyme conjugate of anti-mouse IgG (or anti-mouse IgG subclass) was diluted in diluent and incubated on the plate. A calorimetric enzyme substrate, tetramethylbenzidine, was used to assay for binding of anti-ovalbumin antibody. Spleens from immunized mice were used to assay for the cytotoxic T lymphocyte (CTL) response. The effector cells for the (CTL) assay were splenic mononuclear cells from the harvested spleens. The antigen-positive target cells for the assay were E.G7-OVA cells, which are an MHC class II antigen-negative EL4 mouse cell line, transfected with the ovalbumin gene. […] EL4 cells were used as an ovalbumin-negative target cell line. Prior to assay, splenic mononuclear cells were stimulated with antigen to induce maturation of precursor CTL in the effector cell population. The antigens used for stimulation were mitomycin C treated E.G7-OVA cells (incubated with spleen cells at a ratio of 20:1 spleen cells: E.G7-OVA cells) or denatured ovalbumin (25 μg/ml). […]

QS-17
IgG2a response to cytochrome b5 (cytochrome b5): stimulate IgG2a response | antibody responses to bovine serum albumin and cytochrome b5 [1]: stimulate potent antibody responses

QS-18
IgG2a response to cytochrome b5 (cytochrome b5): stimulate IgG2a response | antibody responses to bovine serum albumin and cytochrome b5 [1]: stimulate potent antibody responses

QS-21
IgG2a response to cytochrome b5 (cytochrome b5): stimulate IgG2a response | antibody titer compared with no adjuvant (ovalbumin [2]): neither 10 μg QS-7 or 0.625 μg QS-21, individually, yields a titer that is higher than no adjuvant | CTL response to ovalbumin (ovalbumin [3]): minimal | antibody responses to bovine serum albumin and cytochrome b5 [1]: stimulate potent antibody responses | toxicity in mice (mice): least toxic | adjuvant for raising an antibody response to ovalbumin (ovalbumin [4]): ineffective | stimulating a CTL response (E.G7-OVA target cells; saponin dose 0.625 μg): ineffective | stimulating a CTL response (E.G7-OVA target cells; saponin dose 1.25 μg): ineffective | stimulating a CTL response (E.G7-OVA target cells; saponin dose 20 μg): highly effective
